Results: patent publication US8420655B2, “Benzimidazole inhibitors of leukotriene production” (Boehringer Ingelheim International GmbH, priority 2009, dated 2013)

The compounds below were run against T1, recombinant human FLAP protein (Homo sapiens, UniProt P20292) (assay: FLAP binding assay, displacement of iodinated (125I) FLAP inhibitor, Scintillation Proximity Assay format). Settings: [125I]L-691,831 probe, membrane protein from sf9 cells; read-out: hFLAP binding IC50.
T1 construct: made in house; host or cells: Sf9 insect cells (membrane fraction, 100,000 x g pellet)
T1 sequence (P20292 1-161): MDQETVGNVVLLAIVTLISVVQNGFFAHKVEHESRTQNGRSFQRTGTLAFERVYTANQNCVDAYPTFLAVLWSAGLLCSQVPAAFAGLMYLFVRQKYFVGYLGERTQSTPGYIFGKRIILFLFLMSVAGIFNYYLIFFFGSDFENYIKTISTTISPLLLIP
Description: Compounds are assessed for the ability to bind to FLAP in a binding assay that measures compound-specific displacement of an iodinated (^125I) FLAP inhibitor via a Scintillation Proximity Assay format (adapted from S. Charleson et al., Mol. Pharmacol., 1992, 41, 873-879).
Cell pellets produced from sf9 insect cells expressing recombinant human FLAP protein are resuspended in buffer A [15 mM Tris-HCl (pH 7.5), 2 mM MgCl2, 0.3 mM EDTA, 1 mM PMSF]. The cells are lysed with a Dounce homogenizer and the material is centrifuged at 10,000×g for 10 minutes. The supernatant is then collected and centrifuged at 100,000×g for 60 minutes. To prepare membrane protein for an assay, an aliquot of the 100,000×g pellet is resuspended in 1 ml of buffer A, Dounce homogenized, and finally subjected to polytron mixing (30 seconds). Membrane protein (25 μl, 5 μg) is mixed with WGA SPA beads (Amersham) and stirred for 1 h. To an assay plate (Perkin Elmer FlexiPlate) is added 25 μl of test compound prepared in Binding buffer [100 mM Tris (pH 7.5), 140 mM NaCl, 5% glycerol, 2 mM EDTA, 0.5 mM TCEP, 0.05% Tween 20], 25 μl of [^125I]L-691,831 (an iodinated analog of MK-591, Charleson et al. Mol. Pharmacol., 41, 873-879, 1992) and finally 50 μl of the bead/protein mixture. (final concentrations: beads, 200 μg/well; protein, 5 μg/well; [^125I] probe, 0 08 nM/well (17 nCi/well). The plates are shaken for 2 h before reading on a Microbeta plate reader. Non-specific binding is determined by the addition of 10 μM cold L-691,831 compound.

| Structure (SMILES) | IC50 [nM] |
| --- | --- |
| CCN(CC)C(=O)Oc1ccc(-n2cncn2)c(-c2nc3cc(-c4cnc(N)nc4)ccc3n2C(C)(C)C)c1 [Diethyl-carbamic acid 3-[5-(2-amino-pyrimidin-5-yl)-1-tert-butyl-1H-benzimidazol-2-yl]-4-1,2,4-triazol-1-yl-phenyl ester] | 8.8 |
| CC(C)(C)n1c(-c2ccccc2-n2cc(Cl)cn2)nc2cc(-c3cnc(N)nc3)ccc21 [5-{1-tert-Butyl-2-[2-(4-chloro-pyrazol-1-yl)-phenyl]-1H-benzimidazol-5-yl}-pyrimidin-2-ylamine] | 4.1 |
| COc1ccc(-c2nc(C)no2)c(-c2nc3cc(-c4cnc(N)nc4)ccc3n2C(C)(C)C)c1 [5-{1-tert-Butyl-2-[5-methoxy-2-(3-methyl-1,2,4-oxadiazol-5-yl)-phenyl]-1H-benzimidazol-5-yl}-pyrimidin-2-ylamine] | 24 |
| COc1ccc(-c2nc(C)ns2)c(-c2nc3cc(-c4cnc(N)nc4)ccc3n2C(C)(C)C)c1 [5-{1-tert-Butyl-2-[5-methoxy-2-(3-methyl-1,2,4-thiadiazol-5-yl)-phenyl]-1H-benzimidazol-5-yl}-pyrimidin-2-ylamine] | 4.3 |
| COC(=O)c1ncn(-c2ccc(C#N)cc2-c2nc3cc(-c4cnc(N)nc4)ccc3n2C(C)(C)C)n1 [1-{2-[5-(2-Amino-pyrimidin-5-yl)-1-tert-butyl-1H-benzoimidazol-2-yl]-4-cyano-phenyl}-1H-[1,2,4]triazole-3-carboxylic acid methyl ester] | 15.9 |
| CCOCc1ccc(-n2cncn2)c(-c2nc3cc(-c4cnc(N)nc4)ccc3n2C(C)(C)C)c1 [5-[1-tert-Butyl-2-(5-ethoxymethyl-2-[1,2,4]triazol-1-yl-phenyl)-1H-benzoimidazol-5-yl]-pyrimidin-2-ylamine] | 10 |
| CC(C)(C)n1c(-c2ccccc2-n2ccc(C(F)(F)F)n2)nc2cc(-c3cnc(N)nc3)ccc21 [5-{1-tert-Butyl-2-[2-(3-trifluoromethyl-pyrazol-1-yl)-phenyl]-1H-benzimidazol-5-yl}-pyrimidin-2-ylamine] | 4.5 |
| CC(C)(C)n1c(-c2cc(F)ccc2-n2cccn2)nc2cc(-c3cnc(N)nc3)ccc21 [5-[1-tert-Butyl-2-(5-fluoro-2-pyrazol-1-yl-phenyl)-1H-benzimidazol-5-yl]-pyrimidin-2-ylamine] | 1.7 |
| CC(C)(C)n1c(-c2ccc(Cl)cc2-n2cncn2)nc2cc(-c3cnc(N)nc3)ccc21 [5-[1-tert-Butyl-2-(4-chloro-2-1,2,4-triazol-1-yl-phenyl)-1H-benzimidazol-5-yl]-pyrimidin-2-ylamine] | 1.7 |
| COC(=O)c1cc(-c2ccc(-n3cncn3)c(-c3nc4cc(-c5cnc(N)nc5)ccc4n3C(C)(C)C)c2)cs1 [4-{3-[5-(2-Amino-pyrimidin-5-yl)-1-tert-butyl-1H-benzoimidazol-2-yl]-4-[1,2,4]triazol-1-yl-phenyl}-thiophene-2-carboxylic acid methyl ester] | 5.2 |

Now those with a lower IC50, led by results:

| IC50 [nM] | Structure (SMILES) |
| --- | --- |
| 1.5 | COc1ccc(-n2cccn2)c(-c2nc3cc(-c4cnc5c(c4)CCN5)ccc3n2C(C)(C)C)c1 [1-tert-Butyl-5-(2,3-dihydro-1H-pyrrolo[2,3-b]pyridin-5-yl)-2-(5-methoxy-2-pyrazol-1-yl-phenyl)-1H-benzimidazole] |
| 1.4 | Cc1ncn(-c2ccc(F)cc2-c2nc3cc(-c4cnc(N)nc4)ccc3n2C(C)(C)C)n1 [5-{1-tert-Butyl-2-[5-fluoro-2-(3-methyl-1,2,4-triazol-1-yl)-phenyl]-1H-benzimidazol-5-yl}-pyrimidin-2-ylamine] |
| 1.1 | Cc1ccn(-c2ccccc2-c2nc3cc(-c4cnc(N)nc4)ccc3n2C(C)(C)C)n1 [5-{1-tert-Butyl-2-[2-(3-methyl-pyrazol-1-yl)-phenyl]-1H-benzimidazol-5-yl}-pyrimidin-2-ylamine] |
| 1.1 | COc1ccc(-n2cccn2)c(-c2nc3cc(-c4cnc5[nH]ccc5c4)ccc3n2C(C)(C)C)c1 [1-tert-Butyl-2-(5-methoxy-2-pyrazol-1-yl-phenyl)-5-(1H-pyrrolo[2,3-b]pyridin-5-yl)-1H-benzimidazole] |
